Reference: article PMC6702328, “A VDAC1-Derived N-Terminal Peptide Inhibits Mutant SOD1-VDAC1 Interactions and Toxicity in the SOD1 Model of ALS” (Frontiers in Cellular Neuroscience, 2019)
pEC50: −log10 of the molar value.

Tests used:
A549 cells = experiment: Cell death, PI staining and flow cytometry, A549; format: cell-based, human; details: 5 h, serum-free medium, 37°C
Procedure: (§1) NSC-34 cells, a mouse motor neuron-like hybrid cell line, the A549 human lung adenocarcinoma and U-87MG human glioblastoma cell lines were incubated with the (1-26)N-Ter-Antp, D-(15-26)N-Ter-Antp, (1-20)N-Ter-Antp, (5-20)N-Ter-Antp, or (10-20)N-Ter-Antp peptides in the appropriate serum-free growth medium for 5 h at 37°C. Cells were harvested, and analyzed for cell death using propidium iodide (PI) staining and flow cytometry. For XTT, the CellTiter 96 AQueous one-solution cell proliferation assay was used to follow cell viability as described previously ([Leyton-Jaimes et al., 2016]).
(§2) NSC-34 (A), U-87MG (B), or A549 (C) cells were incubated with the indicated concentrations of (1-26)N-Ter-Antp (∙), D-(15-26) (19-26)N-Ter-Antp (▲), (1-20)N-Ter-Antp (∘), (5-20)N-Ter-Antp (□) or (10-20)N-Ter-Antp (◆) peptide for 5 h. Cell death was analyzed using PI staining and flow cytometry. […] Cell viability analysis was performed with the CellTiter 96 AQueous one-solution cell proliferation assay with ELISA at 490 nm. […] The significance of quantitative analysis of triplicates of different biological repeats (n = 3) was performed by Student’s t-test; ^∗∗P < 0.01. […] Twenty-four hours post-transfection, the cells were incubated for 5 h with (10-20)N-Ter-Antp peptide (20 μM) and then analyzed for apoptosis using acridine orange and ethidium bromide staining, as described previously ([McGahon et al., 1995]). Fluorescence microscopy images were analyzed and about 100 to 300 cells were counted for each treatment in representative microscopic fields. The significance of quantitative analysis of triplicates of different biological repeats (n = 3) was performed by one-way Anova; ^∗∗P < 0.01.

NSC-34 cells = experiment: Cell death, PI staining and flow cytometry, NSC-34; format: cell-based, mouse; details: 5 h, serum-free medium, 37°C
Procedure: as §1, §2

U-87MG cells = experiment: Cell death, PI staining and flow cytometry, U-87MG; format: cell-based, human; details: 5 h, serum-free medium, 37°C
Procedure: as §1, §2

[1] = test system: NSC-34 cells transfected to express human mutant SOD1^G93A; experiment: Rescue of mutant SOD1^G93A toxicity, cell viability (XTT / CellTiter 96 AQueous); format: cell-based, mouse; details: NSC-34 cells expressing SOD1^G93A, increasing peptide concentrations, 5 h, XTT assay; n = 3
Procedure: as §1, §2
Cell viability was quantified using the XTT assay and apoptosis using acridine orange and ethidium bromide staining. […] Importantly, this effect was observed using the three non-cell death-inducing VDAC1-derived N-terminal peptides, i.e., the (1-20)-N-Ter-Antp, (5-20)-N-Ter-Antp and (10-20)-N-Ter-Antp peptides.

[2] = test system: SH-SY5Y cells expressing SOD1^G93A or SOD1^G37R; experiment: Co-localization of misfolded SOD1 with VDAC1, immunostaining and confocal microscopy; format: cell-based; details: peptide 20 μM, 5 h, 24 h post-transfection; anti-VDAC1 and B8H10 antibodies
Procedure: For immunostaining, SH-SY5Y cells (4.5 × 10^4) were grown on sterilized coverslips in 24-well plates. 30 h post-transfection, cells were fixed using 4% paraformaldehyde (PFA; diluted in PBS) for 15 min, and then washed 3 times with PBS (5 min each wash). Cells were then permeabilized with 0.3% Triton X-100 in PBS for 5 min followed by washing with PBS. Cells were then blocked for 1 h with blocking buffer (1% BSA free fatty acids diluted in PBS). Anti-VDAC1 polyclonal antibody (ab15895) and mouse anti misfolded SOD1 (B8H10, Medimabs) were incubated at room temperature for 1–2 h in a buffer of 1% BSA free fatty acids and 0.3% Triton-X100 in PBS. Following incubation with primary antibodies, cells were washed with PBS and incubated with fluorescent conjugated secondary Alexa Flour 488 anti-rabbit and Alexa flour 647 anti-mouse antibodies. The coverslips were carefully dried and mounted on slides using Immumount (Immumount^TM, Thermo). After overnight drying, images were acquired on an Olympus IX81 confocal microscope.
Twenty-four hours post-transfection, the cells were incubated for 5 h with (10-20)N-Ter-Antp peptide (20 μM) and then analyzed for co-localization using a confocal microscope. […] Scale bar, 10 μm.

[3] = test system: SH-SY5Y cells expressing mutant SOD1^G37R; experiment: Apoptosis, acridine orange/ethidium bromide staining, SOD1^G37R; format: cell-based; details: peptide 20 μM, 5 h, 24 h post-transfection, n = 3
Procedure: (§3) Apoptotic cell death was also analyzed using Acridine Orange (AcOr)/ethidium bromide (EtBr) staining ([McGahon et al., 1995]). Cells in 24-well plates were washed with 200 μl PBS and 10 μl of a solution containing […] in PBS was added. The cells were then visualized by fluorescence microscopy (ZOE fluorescence cell imager, Bio-Rad), images were recorded and cells at early and late apoptotic stages were counted.
as §2, with “The significance of quantitative analysis of triplicates of different biological repeats (n = 3) was performed by one-way Anova; ^∗∗P < 0.01.” left out

[4] = test system: SH-SY5Y cells expressing mutant SOD1^G93A; experiment: Apoptosis, acridine orange/ethidium bromide staining, SOD1^G93A; format: cell-based; details: peptide 20 μM, 5 h, 24 h post-transfection, n = 3
Procedure: as §3
as §2, with “The significance of quantitative analysis of triplicates of different biological repeats (n = 3) was performed by one-way Anova; ^∗∗P < 0.01.” left out

SOD1^G93A = biological target: T1, SOD1^G93A (Homo sapiens, UniProt P00441, G94A); experiment: Microscale thermophoresis (MST) binding to SOD1^G93A
T1 construct: made in house; host or cells: sf-9 cells
T1 sequence (P00441 whole entry G94A): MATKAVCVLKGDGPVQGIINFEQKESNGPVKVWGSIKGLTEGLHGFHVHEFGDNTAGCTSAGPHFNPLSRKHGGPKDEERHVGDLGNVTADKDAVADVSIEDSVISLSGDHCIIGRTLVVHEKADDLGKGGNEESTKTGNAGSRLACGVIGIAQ
Procedure: (§4) Recombinant hSOD1^wt, hSOD1^G93A, and hSOD1^G85R were expressed in sf-9 cells and purified by hydrophobic interaction chromatography using phenyl-Sepharose 6 Fast Flow high sub (Amersham Biosciences), followed by ion exchange chromatography using a HiTrap Q-Sepharose anion exchange column (Amersham Biosciences), as described previously ([Hayward et al., 2002]).
(§5) Microscale thermophoresis analysis was performed using a NanoTemper Monolith NT.115 apparatus, as recently described ([Wienken et al., 2010]; [Zillner et al., 2012]). […] The results are presented as the bound fraction, calculated as follows: fraction bound 100 × (F − Fmin)/(Fmax − Fmin).
(§6) MST measures any variation in the thermal movement of a fluorescently labeled binding partner. The subsequent fluorescence depletion in a heated spot of the protein solution is measured as a function of increasing interacting partner concentration, with dissociation constants (KD) values being derived from the depletion curves ([Wienken et al., 2010]; Figure 1D).
(§7) Molecular weight standards are presented. […] After 20 min of incubation, 3–5 μl aliquots were loaded into MST-grade glass capillaries (NanoTemper Technologies) and thermophoresis was measured with a NanoTemper Monolith-NT115 system. The percentage change in normalized fluorescence (ΔF Norm %) is plotted as a function of protein concentration. […]

SOD1^WT = biological target: T2, SOD1^WT (Homo sapiens, UniProt P00441); experiment: Microscale thermophoresis (MST) binding to SOD1^WT; details: read-out: EC50 (binding affinity, dissociation constant) of peptide to SOD1^WT
T2 construct: made in house; host or cells: sf-9 cells
T2 sequence (P00441 whole entry): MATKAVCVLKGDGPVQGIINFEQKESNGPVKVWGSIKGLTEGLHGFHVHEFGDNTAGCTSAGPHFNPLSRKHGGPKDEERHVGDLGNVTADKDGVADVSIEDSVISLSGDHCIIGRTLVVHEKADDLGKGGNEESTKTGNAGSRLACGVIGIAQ
Procedure: as §4, §5, §6, §7

SOD1^G85R = biological target: T3, SOD1^G85R (Homo sapiens, UniProt P00441, G86R); experiment: Microscale thermophoresis (MST) binding to SOD1^G85R; details: fluorescently labeled SOD1^G85R 230 nM, peptide 0.001–50 μM, 10 mM HEPES pH 7.4, 20 min, duplicate reads of triplicate experiments, read-out: EC50 (binding affinity, dissociation constant) of peptide to SOD1^G85R
T3 construct: made in house; host or cells: sf-9 cells
T3 sequence (P00441 whole entry G86R): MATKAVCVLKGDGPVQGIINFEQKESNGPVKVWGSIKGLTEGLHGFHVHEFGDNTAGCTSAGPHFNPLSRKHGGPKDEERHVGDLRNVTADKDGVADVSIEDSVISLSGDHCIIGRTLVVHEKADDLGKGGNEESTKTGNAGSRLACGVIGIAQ
Procedure: as §4, §5, §6, §7

ΔN-VDAC1 = biological target: T4, ΔN-VDAC1 (Mus musculus, UniProt Q60932); experiment: Channel conductance of N-terminally truncated VDAC1 reconstituted into a planar lipid bilayer; format: biochemical, murine; details: after addition of 40 μg/ml SOD1, mean ± SEM
T4 construct: inferred from pET21a vector, XhoI cloning and Ni-NTA purification) (C); made in house; host or cells: Escherichia coli BL21(DE3)
T4 sequence (Q60932 40-296, stated change not applied): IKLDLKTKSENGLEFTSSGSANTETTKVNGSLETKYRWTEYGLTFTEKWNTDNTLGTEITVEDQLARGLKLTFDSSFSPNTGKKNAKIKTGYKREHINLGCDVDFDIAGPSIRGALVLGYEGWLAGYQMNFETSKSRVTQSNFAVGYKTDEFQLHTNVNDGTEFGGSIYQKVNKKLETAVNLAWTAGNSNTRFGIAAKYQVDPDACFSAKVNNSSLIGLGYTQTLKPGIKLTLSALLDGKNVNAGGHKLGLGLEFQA
Procedure: (§8) Protein expression was induced for 3 h using 1 mM isopropyl-β-D-thiogalactopyranoside (IPTG; Sigma). Proteins were purified on agarose-packed nickel-nitrilotriacetic acid resin (Ni-NTA; Qiagen) in the presence of 8 M urea. Refolding of the eluted protein was performed essentially as described previously ([Hiller et al., 2008]).
The reconstitution of recombinant WT or ΔN-VDAC1 into a planar lipid bilayer (PLB) prepared from soybean asolectin, and subsequent single channel current recordings and data analysis were carried out as described previously ([Gincel et al., 2001]). Currents were recorded under voltage-clamp conditions before and 5 min after the addition of 40 μg of recombinant hSOD1^wt, hSOD1^G93A, or hSOD1^G85R to the cis compartment using a Bilayer Clamp BC-535B amplifier (Warner Instrument, Hamden, CT, United States). Current amplitude histograms were prepared using AxoGraph X software. Relative conductance was determined as the average steady-state conductance at a given voltage normalized to the conductance at 10 mV, the maximal conductance. Relative conductance-voltage plots were prepared using Microsoft Excel software.
(C) Relative conductance of ΔN-VDAC1 as a function of voltage in a step from 60 to –60 mV before (▲) and after addition of SOD1^WT (Δ). Relative conductance (conductance/maximal conductance) was determined as the average steady-state conductance at a given voltage normalized to the conductance at 10 mV, taken as the maximal conductance. […] (E–H) Similar experiments as in (A–D), except that mutant SOD1^G93A was used. (I–L) Similar experiments as in (A–D), except that mutant SOD1^G85R was used.

[5] = biological target: T5, recombinant full length VDAC1 (Mus musculus, UniProt Q60932); experiment: Channel conductance of full length VDAC1 reconstituted into a planar lipid bilayer; format: biochemical, murine; details: for Conductance, VDAC1 + SOD1: planar lipid bilayer, after addition of 40 μg/ml SOD1, mean ± SEM, SEM
T5 construct: inferred from pET21a vector, XhoI cloning and Ni-NTA purification) (C); made in house; host or cells: Escherichia coli BL21(DE3)
T5 sequence (Q60932 14-296): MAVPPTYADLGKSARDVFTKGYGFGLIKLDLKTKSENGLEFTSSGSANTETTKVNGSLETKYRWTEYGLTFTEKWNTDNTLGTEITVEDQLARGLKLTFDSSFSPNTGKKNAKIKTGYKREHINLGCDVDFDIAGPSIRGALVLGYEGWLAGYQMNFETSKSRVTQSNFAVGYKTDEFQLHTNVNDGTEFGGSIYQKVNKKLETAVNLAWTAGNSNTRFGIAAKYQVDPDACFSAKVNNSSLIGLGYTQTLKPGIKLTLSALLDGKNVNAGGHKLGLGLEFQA
Procedure: as §8
Currents were recorded under voltage-clamp conditions before and 5 min after the addition of 40 μg of recombinant hSOD1^wt, hSOD1^G93A, or hSOD1^G85R to the cis compartment using a Bilayer Clamp BC-535B amplifier (Warner Instrument, Hamden, CT, United States). Current amplitude histograms were prepared using AxoGraph X software. […] Relative conductance-voltage plots were prepared using Microsoft Excel software.
Relative conductance (conductance/maximal conductance) was determined as the average steady-state conductance at a given voltage normalized to the conductance at 10 mV, considered the maximal conductance.

Compound	Cell death induction in A549 cells (A549 cells)	Cell death induction in NSC-34 cells (NSC-34 cells)	Cell death induction in U-87MG cells (U-87MG cells)	Conductance, ΔN-VDAC1 + SOD1 (ΔN-VDAC1)	also measured
1-MAVPPTYADLGKSARDVFTKG YGFGL-26- RQIKIWFQNRRMKWKK [(1-26)-N-Ter-Antp]	induced massive cell death	induced massive cell death	induced massive cell death	–	–
5-PTYADLGKSARDVFTK-20- RQIKIWFQNRRMKWKK [(5-20)-N-Ter-Antp, like (1-20)-N-Ter-Antp but shortened by four amino acids at the N-terminus]	could not induce cell death	could not induce cell death	could not induce cell death	–	Effect on SOD1^G93A toxicity (cell viability) [1]: reduced the toxic effect of SOD1^G93A in a concentration-dependent manner
10-LGKSARDVFTK-20- RQIKIWFQNRRMKWKK [(10-20)-N-Ter-Antp, like (1-20)-N-Ter-Antp but shortened by nine amino acids at the N-terminus]	could not induce cell death	could not induce cell death	could not induce cell death	–	Co-localization of misfolded SOD1 with VDAC1 [2]: co-localization was greatly eliminated; decrease of SOD1^G37R-mediated cell death [3]: 81%; decrease of SOD1^G93A-mediated cell death [4]: 68%; Effect on SOD1^G93A toxicity (cell viability) [1]: reduced the toxic effect of SOD1^G93A in a concentration-dependent manner
14-RDVFTKGYGFGL-26- RQIKIWFQNRRMKWKK [D-(15-26)-N-Ter-Antp]	induced massive cell death	induced massive cell death	induced massive cell death	–	–
159-ETAKSRVTQSNFAVGYKT-177 [LP3, reference compound]	–	–	–	–	Binding to mutant SOD1 compared with the (1-26)-N-terminal peptide (SOD1^G93A; MST, fluorescently labeled SOD1^G93A 675 nM, LP3 6–40 μM, HEPES buffer): significantly lower binding to mutant SOD1
CSCC[C@H](N)C(=O)N[C@@H](C)C(=O)N[C@H](C(=O)N1CCC[C@H]1C(=O)N1CCC[C@H]1C(=O)N[C@H](C(=O)N[C@@H](Cc1ccc(O)cc1)C(=O)N[C@@H](C)C(=O)N[C@@H](CC(=O)O)C(=O)N[C@@H](CC(C)C)C(=O)NCC(=O)N[C@@H](CCCCN)C(=O)N[C@@H](CO)C(=O)N[C@@H](C)C(=O)N[C@@H](CCCNC(=N)N)C(=O)N[C@@H](CC(=O)O)C(=O)N[C@H](C(=O)N[C@@H](Cc1ccccc1)C(=O)N[C@H](C(=O)N[C@@H](CCCCN)C(=O)NCC(=O)N[C@@H](Cc1ccc(O)cc1)C(=O)NCC(=O)N[C@@H](Cc1ccccc1)C(=O)NCC(=O)N[C@@H](CC(C)C)C(=O)O)[C@@H](C)O)C(C)C)[C@@H](C)O)C(C)C [(1-26)N-Terminal]	–	–	–	–	pEC50 (SOD1^WT): < 3.70; pEC50 (SOD1^G93A): 5.43; pEC50 (SOD1^G85R): 5.43
SOD1^G85R: recombinant human mutant SOD1 G85R expressed in sf-9 cells	–	–	–	3.92 ± 0.08 nS	Conductance, VDAC1 + SOD1 [5]: 2.3 ± 0.35 nS
SOD1^G93A: recombinant human mutant SOD1 G93A expressed in sf-9 cells	–	–	–	3.45 ± 0.01 nS	–
SOD1^WT: recombinant wild type human SOD1 expressed in sf-9 cells	–	–	–	3.69 ± 0.13 nS	effect on VDAC1 current ([5]; highest concentration 60 μg/ml, current-time traces at −10 or 10 mV): had no effect on the current; Conductance, VDAC1 + SOD1 [5]: 3.84 ± 0.1 nS
